Data: patent US9469853B2, “MCPIP protection against osteoclast production” (University of Central Florida Research Foundation, Inc., priority 2005, dated 2016)

Key:
GRP78 and IRE-1 = experiment: ER stress markers GRP78 and IRE-1 expression; type: cell-based, human; settings: for expression of ER stress markers GRP78 and IRE-1: substance alone; for MCPIP-induced expression of GRP78: autophagy inhibition, MCPIP-transfected BMCs; for MCPIP-induced expression of GRP78 and IRE-1: pretreatment prior to MCPIP transfection, immunoblot
Protocol: (§1) BMCs were cultured in α-MEM supplemented with 10% FBS containing 30 ng/ml M-CSF, 100 U/ml penicillin, and 100 μg/ml streptomycin in 5% CO2 at 37° C. OC precursor cells were induced after 3-day culture as Ha et al. (2010). At this point, cells were treated with 50 ng/ml MCP-1, inhibitors, or gene transfection. For inhibitor treatment, CeO2 (10 μM), apocynin (100 μg/ml), TUDC (100 μM), 3′-MA (50 μM), and LY294002 (20 μM) were added 6 h before gene transfection.
(§2) OC precursor cells were transfected with 1 μg GFP or MCPIP-GFP eukaryotic expression plasmids for gene-gain-function assay by using Fugene 6. For gene silencing, chemically synthesized siRNA duplex (100 nM) targeting MCPIP, IRE-1, or Beclin-1 was transfected into OC precursor cells using DharmaFECT (Dharmacon) for 24 h prior to transfection with MCPIP-GFP or GFP plasmid. A scrambled siRNA was used as a negative control. For knockdown expression of p47^PHOX, specific antisense (AS) (5′-[…]-3′ (SEQ ID NO: 5)) and sense (5′-[…]-3′ (SEQ ID NO: 6)) oligonucleotides were designed and synthesized by phosphorothioate modification by Integrated DNA Technologies. The oligonucleotides were transfected into OC precursor cells using Lipofectamine 2000 for 24 h before MCPIP-GFP plasmid transfection.
(§3) Cells were centrifuged after wash with PBS for twice. Cell pellet was resuspended in 1 ml Trizol reagent and the total RNA was extracted with chloroform and isopropanol, purified on Qiagen Mini-Prep column, and treated with DNase. High Capacity cDNA Reverse Transcription kit (Applied Biosystems) was used for cDNA preparation from 1 μg total RNA. qRT-PCR was done in triplicate in an ABI PRISM 7900HT Sequence Detection System with 5% cDNA product, primers (Supplementary Table S1) at 125 nM, and Fast SYBR Green Master Mix (Applied Biosystems). Relative quantitation of PCR products was done by the 2^−ΔΔCT method, CT=cycles to threshold, and ^ΔΔCT=(target gene CT)−(β-actin reference gene CT). Final data were described as fold changes against control cells.
(§4) Sodium dodecyl sulfate-polyacrylamide gel electrophoresis (SDS-PAGE) and western blotting were performed as described elsewhere. Samples (30 μg of protein) were subjected to 12% SDS-PAGE for most of target protein and 18% SDS-PAGE for LC3-II and LC3, transferred onto PVDF membranes (Millipore), and assayed for MCPIP, p47^PHOX, TRAP, CTSK, GRP78, IRE-1, Beclin-1, LC3-II, and β-actin or Fas (loading control) protein expression by chemiluminescence detection (Pierce ECL kit) according to the manufacturer's instructions. The specific protein bands were quantified by densitometric analysis with GS-690 Image Densitometer (Bio-Rad).

[1] = test system: TRAP and CTSK expression in BMCs; experiment: Expression of OC markers TRAP and CTSK (immunoblot, real-time PCR); type: cell-based, human; settings: for expression of TRAP and CTSK: substance alone, no other inducer, protein and mRNA; for MCPIP-induced expression of TRAP and CTSK: MCPIP-transfected BMCs, inhibitors 6 h (CeO2 10 μM, apocynin 100 μg/ml, TUDC 100 μM, 3′-MA 50 μM, LY294002 20 μM) or siRNA/antisense 24 h before transfection
Protocol: as §1, §2, §3, §4

p47PHOX = p47PHOX expression and membrane translocation (immunoblot); type: cell-based, human
Protocol: as §1
OC precursor cells were transfected with 1 μg GFP or MCPIP-GFP eukaryotic expression plasmids for gene-gain-function assay by using Fugene 6. […]
OC precursor cells were harvested, sonicated on ice in a buffer containing 100 mM KCl, 3 mM NaCl, 3.5 mM MgCl2, 10 mM HEPES, 1 mM EGTA, 10 μg/ml pepstatin, 10 μg/ml leupeptin, and 0.5 mM PMSF; lysates were centrifuged at 600 g for 10 min at 4° C. to remove nuclei and unbroken cells. […] Membranes were washed in the same buffer, quantified (Lemarie), and resuspended in Laemmli sample buffer, before western blot analysis.
(§5) Sodium dodecyl sulfate-polyacrylamide gel electrophoresis (SDS-PAGE) and western blotting were performed as described elsewhere. […] The specific protein bands were quantified by densitometric analysis with GS-690 Image Densitometer (Bio-Rad).

[2] = test system: human bone marrow mononuclear cells (BMCs); experiment: TRAP staining, TRAP-positive OC precursor cell formation; type: cell-based; settings: substance alone, 50 ng/ml MCP-1, human BMCs
Protocol: as §1
(§6) OC precursor cells were transfected with 1 μg GFP or MCPIP-GFP eukaryotic expression plasmids for gene-gain-function assay by using Fugene 6. For gene silencing, chemically synthesized siRNA duplex (100 nM) targeting MCPIP, IRE-1, or Beclin-1 was transfected into OC precursor cells using DharmaFECT (Dharmacon) for 24 h prior to transfection with MCPIP-GFP or GFP plasmid. A scrambled siRNA was used as a negative control. […]
Three days after MCP-1 treatment or 4 days after MCPIP transfection, cells were fixed for histological staining for TRAP as described previously (Kim et al., 2006a). […] On each coverslip, totally at least 500 cells were examined and the TRAP-positive cells were counted in 3-5 fields (20× objective), and the percentage of TRAP-positive cells was calculated.

[3] = test system: αV integrin, β3 integrin, and MMP9; experiment: Expression of OC functional markers αV integrin, β3 integrin, MMP9; type: cell-based, human; settings: substance alone
Protocol: as §1, §6
(§7) Cells were centrifuged after wash with PBS for twice. […] Relative quantitation of PCR products was done by the 2^−ΔΔCT method, CT=cycles to threshold, and ^ΔΔCT=(target gene CT)−(β-actin reference gene CT). […]
as §5

MCPIP = MCPIP expression (immunoblot, real-time PCR); type: cell-based, human
Protocol: as §1, §6, §7, §5

ROS production in BMCs = experiment: ROS production (DHR123 oxidation); type: cell-based, human
Protocol: as §1
as §2, with “The oligonucleotides were transfected into OC precursor cells using Lipofectamine 2000 for 24 h before MCPIP-GFP plasmid transfection.” left out
Oxidant production in OC precursor cells was assessed by measuring the oxidation of intracellular DHR123 (Molecular Probes) as described previously (Younce et al., 2010). ROS production was expressed as folds compared with control cells expressing GFP alone.

Beclin-1, LC3, Atg7 = experiment: Autophagy markers (Beclin-1, LC3 lipidation, Atg7) expression; type: cell-based, human; settings: MCPIP-transfected BMCs
Protocol: as §1, §2, §3, §4

[4] = pretreatment prior to MCPIP transfection

With tunicamycin the “expression of ER stress markers GRP78 and IRE-1” value (GRP78 and IRE-1) was “induced” and the “expression of TRAP and CTSK” value [1] was “induced”.

In the case of `O=c1cc(N2CCOCC2)oc2c(-c3ccccc3)cccc12` [LY294002], the “MCPIP-induced expression of GRP78” value (GRP78 and IRE-1) was “no effect”.

With “MCP-1: human MCP-1, a CC chemokine, purchased from Invitrogen” the “expression of p47PHOX and its translocation from the cytoplasm into the membrane” value (p47PHOX; substance alone) was “increased”, the “TRAP-positive OC precursor cell formation” value [2] was “induced” and the “expression of ER stress markers GRP78 and IRE-1” value (GRP78 and IRE-1) was “induced”. The “expression of αV integrin, β3 integrin, and MMP9” value [3] was “did not affect”, the “MCPIP protein and mRNA levels” value (MCPIP; substance alone, 50 ng/ml MCP-1) was “induced up-regulation” and the ROS generation (ROS production in BMCs; substance alone, DHR123 staining) was “remarkably increased”. The “expression of TRAP and CTSK” value [1] was “induced”.

In the case of `COc1cc(C(C)=O)ccc1O` [apocynin], the “MCPIP-induced expression and membrane translocation of p47PHOX” value (p47PHOX; [4]) was “inhibited”, the “MCPIP-induced expression of Beclin-1” value (Beclin-1, LC3, Atg7) was “inhibited significantly” and the “MCPIP-induced expression of GRP78 and IRE-1” value (GRP78 and IRE-1) was “attenuated”. The “MCPIP-induced ROS production” value (ROS production in BMCs; [4]) was “suppressed” and the “MCPIP-induced expression of TRAP and CTSK” value [1] was “suppressed”.

`Cn1cnc(N)c2ncnc1-2` [3′-MA, 3′-methyladenine] was tested, and the “MCPIP-induced expression of Beclin-1” value (Beclin-1, LC3, Atg7) was “significantly inhibited”, the “lipidation of LC-3” value (Beclin-1, LC3, Atg7; immunoblot) was “inhibited” and the “MCPIP-induced expression of GRP78” value (GRP78 and IRE-1) was “no effect”. For the same compound, the “MCPIP-induced expression of TRAP and CTSK” value [1] was “significantly inhibited”.

For `C[C@H](CCC(=O)NCCS(=O)(=O)O)[C@H]1CC[C@H]2[C@@H]3[C@@H](O)C[C@@H]4C[C@H](O)CC[C@]4(C)[C@H]3CC[C@]12C` [TUDC, tauroursodeoxycholate], the “MCPIP-induced expression of Beclin-1” value (Beclin-1, LC3, Atg7) was “inhibited significantly”, the “MCPIP-induced expression of GRP78 and IRE-1” value (GRP78 and IRE-1) was “inhibits” and the “expression of MCPIP after MCPIP transfection” value (MCPIP; MCPIP-transfected BMCs) was “did not affect”. For the same compound, the “MCPIP-induced expression of TRAP and CTSK” value [1] was “significantly inhibited”.

`C/C=C(/C)C(=O)O[C@H]1C(C)=C2[C@H]([C@@H]1OC(=O)CCCCCCC)[C@@](C)(OC(C)=O)C[C@H](OC(=O)CCC)[C@@]1(O)[C@H]2OC(=O)[C@@]1(C)O` [thapsigargin] was tested, and the “expression of ER stress markers GRP78 and IRE-1” value (GRP78 and IRE-1) was “induced” and the “expression of TRAP and CTSK” value [1] was “induced”.
